Tested on: 786-0 complex spheroids with HUVEC/MSC, growth % test/control
Assay: Anticancer human tumor 786-0 cell line growth inhibition [AhR];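 note: compound exposure lasted seven days before the read-out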
Conditions: for IC50: curve of first compound; for viability, T/C: stronger effect = lower value
Excerpt: Multicellular complex tumor spheroid response to aryl hydrocarbon receptor antagonists in combination with a variety of drugs and investigational agents in selected tumor cell lines
The current study was undertaken to assess response to aryl hydrocarbon receptor antagonists in combination with standard-of-care drugs and investigational agents in solid tumor complex spheroid models. Complex spheroids include a stromal component modeled by human endothelial cells (HUVEC) and fibroblasts modeled by human mesenchymal stem cells (MSCs). The concentration ranges selected for each drug and investigational agent were based upon clinically achievable concentrations if the clinical Cmax of the agent was known.
Compounds. The drugs and investigational agents: BAY 2416964 (NSC825713), GNF351 (NSC835774), CH-223191 (NSC835775), CPI-455 (NSC825282), aza-TdCyd (NSC777586), decitabine (NSC127716), belinostat (NSC758774), entinostat (NSC756642), pevonedistat (NSC761192), tazemetostat (NSC777109), talazoparib (NSC765396), olaparib (NSC753686), selinexor (NSC780203), nedisertib (M3814, NSC802822), bortezomib (NSC756655), venetoclax (NSC766270), doxorubicin (NSC123127), elimusertib (BAY189344, NSC800525), ceralasertib (AZD6738, NSC777638), TAK-243 (NSC785004), alisertib (NSC759677), etoposide (NSC141540), topotecan (NSC609699), eribulin (NSC707389), gemcitabine (NSC613327), carboplatin (NSC241240), cisplatin (NSC119875), and SN-38 (NSC673596) were obtained from the National Cancer Institute (NCI) Developmental Therapeutics Program Chemical Repository (32). The FDA-approved anticancer drug set is available from the Developmental Therapeutics Program at https://dtp.cancer.gov/organization/dscb/obtaining/available plates.htm. […] The stock solutions were prepared in dimethyl sulfoxide (DMSO, Sigma-Aldrich, St. Louis, MO, cat. D2650), except for the platinum compounds which were prepared in saline (Quality Biological, Gaithersburg, MD, cat. 114-055-101), at 800-fold the tested concentration and stored at -70 degrees C prior to their use. All drugs and investigational agents were tested over a range starting from a high concentration at or near the clinical Cmax and decreasing in half-log increments. If the clinical Cmax for an agent had not been determined, the highest concentration tested was 10 microM (Table 1).
Cell Culture. All cells were maintained in an incubator at 37 degrees C and 5% CO2 with 95% humidity. The PDC lines were cultured according to standard operating procedures established by the NCI PDMR (https://pdmr.cancer.gov). Briefly, all PDCs were thawed and cultured in Matrigel-coated flasks prepared with a working solution of 1X Ham's F-12 nutrient mix, without supplementation (Invitrogen, Waltham, MA, cat. 11765054), 100 U/mL penicillin-streptomycin (Invitrogen, cat. 15140122), and 2.5% Matrigel (Corning Inc., Corning, NY, cat. 354248) for the first three passages. All PDCs were cultured in complete DMEM/F-12 media containing advanced DMEM/F-12 (Invitrogen, cat. 12634028), 4.9% defined fetal bovine serum, heat inactivated (HyClone Laboratories Inc., Logan, UT, cat. SH30070.03HI), 389 ng/mL hydrocortisone (Sigma-Aldrich, cat. H4001), 9.7 ng/mL human EGF recombinant protein (Invitrogen, cat. PHG0313), 23.4 microg/mL adenine (Sigma-Aldrich, cat. A2786), 97.3 U/mL penicillin-streptomycin (Invitrogen, cat. 15140122), 1.9 mM L-glutamine (Invitrogen, cat. 25030081), and 9.7 microM Y-27632 dihydrochloride (Tocris Bioscience, Bristol, United Kingdom, cat. 1254). The PDCs were cultured in complete DMEM/F12 media without 10 microM Y-27632 dihydrochloride for at least two passages prior to the screen. The established cell lines NCI-H1341 and […] were cultured in DMEM/F-12, HEPES (Invitrogen, cat. 11330032), 5% defined fetal bovine serum (HyClone Laboratories Inc., cat. SH30070.03), ITS premix universal culture supplement [insulin (5 microg/mL), transferrin (5 microg/mL), and selenious acid (5 ng/mL)] […]

[1] = second compound 0.1 µM, first compound 0.0316 µM
[2] = second compound 0.1 µM, first compound 0.1 µM
[3] = second compound 0.1 µM, first compound 0.316 µM
[4] = second compound 0.1 µM, first compound 1 µM
[5] = second compound 0.1 µM, first compound 3.16 µM
[6] = second compound 0.1 µM, first compound 10 µM
[7] = second compound 0.316 µM, first compound 0.0316 µM
[8] = second compound 0.316 µM, first compound 0.1 µM
[9] = second compound 0.316 µM, first compound 0.316 µM
[10] = second compound 0.316 µM, first compound 1 µM
[11] = second compound 0.316 µM, first compound 3.16 µM
[12] = second compound 0.316 µM, first compound 10 µM
[13] = second compound 1 µM, first compound 0.0316 µM
[14] = second compound 1 µM, first compound 0.1 µM
[15] = second compound 1 µM, first compound 0.316 µM
[16] = second compound 1 µM, first compound 1 µM
[17] = second compound 1 µM, first compound 3.16 µM
[18] = second compound 1 µM, first compound 10 µM
[19] = second compound 3.16 µM, first compound 0.0316 µM
[20] = second compound 3.16 µM, first compound 0.1 µM
[21] = second compound 3.16 µM, first compound 0.316 µM
[22] = second compound 3.16 µM, first compound 1 µM
[23] = second compound 3.16 µM, first compound 3.16 µM
[24] = second compound 3.16 µM, first compound 10 µM
[25] = second compound 10 µM, first compound 0.0316 µM
[26] = second compound 10 µM, first compound 0.1 µM
[27] = second compound 10 µM, first compound 0.316 µM
[28] = second compound 10 µM, first compound 1 µM
[29] = second compound 10 µM, first compound 3.16 µM
[30] = second compound 10 µM, first compound 10 µM

SMILES	IC50 (second compound 0.1 µM)	IC50 (second compound 0.316 µM)	IC50 (second compound 1 µM)	IC50 (second compound 3.16 µM)	IC50 (second compound 10 µM)	viability, T/C [1]	viability, T/C [2]	viability, T/C [3]	viability, T/C [4]	viability, T/C [5]	viability, T/C [6]	viability, T/C [7]	viability, T/C [8]	viability, T/C [9]	viability, T/C [10]	viability, T/C [11]	viability, T/C [12]	viability, T/C [13]	viability, T/C [14]	viability, T/C [15]	further results
NS(=O)(=O)OCC1CC(n2ccc3c(NC4CCc5ccccc54)ncnc32)CC1O (stereo not given) + CC(CO)NC(=O)c1cc(-c2ccc(Cl)cc2)nn(-c2cnn(C)c2)c1=O	0.365 µM	0.344 µM	0.376 µM	0.249 µM	0.261 µM	78.8%	78.7%	52.8%	20.9%	3.93%	1.87%	86.8%	73.3%	54.5%	19.6%	4.23%	2.08%	77.4%	72.1%	55.2%	viability, T/C [16]: 21.8%; viability, T/C [17]: 4%; viability, T/C [18]: 2.14%; viability, T/C [19]: 87.8%; viability, T/C [20]: 67.7%; viability, T/C [21]: 47.6%; viability, T/C [22]: 19.1%; viability, T/C [23]: 3.93%; viability, T/C [24]: 2.48%; viability, T/C [25]: 93%; viability, T/C [26]: 72.9%; viability, T/C [27]: 46.5%; viability, T/C [28]: 18.7%; viability, T/C [29]: 3.17%; viability, T/C [30]: 2.21%
O=C(C=Cc1cccc(S(=O)(=O)Nc2ccccc2)c1)NO + CC(CO)NC(=O)c1cc(-c2ccc(Cl)cc2)nn(-c2cnn(C)c2)c1=O	6.02 µM	5.21 µM	5.51 µM	4.85 µM	4.71 µM	102%	106%	97.2%	107%	93.8%	15.2%	104%	101%	111%	110%	79%	12%	100%	104%	104%	viability, T/C [16]: 105%; viability, T/C [17]: 84.7%; viability, T/C [18]: 12.5%; viability, T/C [19]: 103%; viability, T/C [20]: 102%; viability, T/C [21]: 103%; viability, T/C [22]: 101%; viability, T/C [23]: 73.6%; viability, T/C [24]: 10%; viability, T/C [25]: 109%; viability, T/C [26]: 108%; viability, T/C [27]: 106%; viability, T/C [28]: 94.8%; viability, T/C [29]: 72.6%; viability, T/C [30]: 8.46%

From PubChem BioAssay AID1919003 (Molecular Pharmacology Branch, DTP, NCI, 2023)
